Read-outs that look alike come from different tables or passages of the source.
Key:
µOR [1] = target: T1, µOR (Homo sapiens, UniProt P35372); assay: Bias factor calculation (operational model, cAMP vs β-arrestin 2); details: DAMGO as reference, >1 = more G protein-biased
Method: Bias factors were calculated using the operational model equation in Prism 8 to calculate Log R (τ/KA) (Table S2) as previously described [12]. […] A bias factor > 1 meant that the agonist was more G protein-biased than the reference compound; A bias factor < 1 meant that the agonist was less G protein-biased than the reference compound.

µOR [2] = target: T1, µOR; assay: cell-based; type: cell-based
Method: (§1) In brief, for cAMP inhibition assays HEK 293 (Life Technologies, Grand Island, NY, USA) cells were transiently transfected in a 1:3 ratio with FLAG-mouse δOR, or HA-mouse µOR and pGloSensor22F-cAMP plasmids (Promega, Madison, WI, USA) using Xtremegene9 (Sigma). Two days post-transfection cells (20,000 cells/well, 7.5 µL) were seeded in low volume Greiner 384-well plates (#82051-458, VWR, Batavia, IL, USA) and were incubated with Glosensor reagent (Promega, 7.5 µL, 2% final concentration) for 90 min at room temperature. […] For β-arrestin recruitment assays, CHO-human µOR PathHunter β-arrestin 2 cells or CHO-human δOR PathHunter β-arrestin 2 cells (DiscoverX, Fremont, CA, USA) were plated (2,500 cells/well, 10 µL) one day prior to stimulation with 2.5 µL drug solution for 90 min at 37 °C/5% CO2, after which cells were incubated with 6 µL cell PathHunter assay buffer (DiscoverX) for 60 min at room temperature as per the manufacturer’s protocol. Luminescence for each of these assays was measured using a FlexStation3 plate reader (Molecular Devices, Sunnyvale, CA, USA).
(§2) All data are presented as means ± standard error of the mean, and analysis was performed using GraphPad Prism 8 software (GraphPad Software, La Jolla, CA). For in vitro assays, nonlinear regression was conducted to determine pIC50 (cAMP) or pEC50 (β-arrestin 2 recruitment). […] The averages of each independent run were counted as a single experiment and combined to provide a composite curve in favor of providing a ‘representative’ curve. In each experimental run, a positive control/reference compound was utilized to allow the data to be normalized and to calculate the log bias value. A minimum of three independent values were obtained for each compound in each of the cellular assays.

Rat plasma stability = details: for Degradation Products (First Appearance): rat plasma, UPLC-mass spectrometry, time of first appearance in parentheses; for half-life: rat, plasma
Method: Peptides were synthesized using an Aapptec Focus XC automated peptide synthesizer coupled with a heating system using a solid phase peptide synthesis protocol using Fmoc chemistry. Preparative RP-HPLC was performed using an appropriate column and solvent system (described below) and final purity of peptides was determined by UV area % from UPLC analysis. Peptides were purified by Teledyne ISCO EZ Prep system on RediSep® C18 Prep column (30 × 250 mm, 100 Å). […] Plasma stability was also assessed using the above UPLC column and solvent gradient program using a Waters H class Plus Acquity UPLC system coupled with a QDa detector using protocol B.
Sprague Dawley rat plasma containing K2-ethylenediaminetetraacetic acid (Innovative Research, MI, USA) was transferred into 300 µL aliquots and stored at −20 °C until use. […] After adding analog, an aliquot of the mixture was removed at each indicated time point (0, 5, 10, 15, 20, 30, 60, 120, 240 min) and immediately quenched with 100 μL of a methanol solution containing 20 μM Fmoc-Leu-OH as an internal standard. […] Then, the filtrate was transferred into vials and a 5 μL sample of the resulting solution was analyzed on an UPLC system coupled with a QDa detector. […] Determination of half-life (t1/2) was carried out by using the GraphPad Prism one-phase decay method.

FLAG-mouse δOR = target: T2, FLAG-mouse δOR (Mus musculus, UniProt P32300); assay: cAMP GloSensor inhibition assay in HEK 293 cells; type: cell-based; details: for IC50: HEK 293, forskolin 30 µM; for LogR (δOR) cAMP: operational model Log R (τ/KA); for cAMP δOR Efficacy (%+SD): relative to Leu-enkephalin = 100
T2 construct: FLAG; expressed in transfected cells; host or cells: HEK 293
Method: as §1, §2

HA-mouse µOR = target: T3, HA-mouse µOR (Mus musculus, UniProt P42866); assay: cAMP GloSensor inhibition assay in HEK 293 cells; type: cell-based; details: for LogR (µOR) cAMP: operational model Log R (τ/KA); for cAMP µOR Efficacy (%+SD): relative to DAMGO = 100; for IC50: HEK 293, forskolin 30 µM
T3 construct: HA; expressed in transfected cells; host or cells: HEK 293
Method: as §1, §2

µOR [3] = target: T1, µOR; assay: Competition radioligand binding, [3H]DAMGO
Method: Next, 100 µL of membrane suspension containing 7 µg protein was added to the agonist wells and incubated for 90 min at room temperature. The reaction mixture was then filtered over a GF-B filter plate (Perkin Elmer) followed by four quick washes with ice-cold 50 mM Tris HCl. The plate was dried overnight, after which 50 µL scintillation fluid (Ultimagold uLLT) was added and radioactivity was counted on a Packard TopCount NXT scintillation counter. All working solutions were prepared in a radioligand assay buffer containing 50 mM Tris HCl, 10 mM MgCl2, and 1 mM ethylenediaminetetraacetic acid at pH 7.4.

T2 sequence (P32300 whole entry): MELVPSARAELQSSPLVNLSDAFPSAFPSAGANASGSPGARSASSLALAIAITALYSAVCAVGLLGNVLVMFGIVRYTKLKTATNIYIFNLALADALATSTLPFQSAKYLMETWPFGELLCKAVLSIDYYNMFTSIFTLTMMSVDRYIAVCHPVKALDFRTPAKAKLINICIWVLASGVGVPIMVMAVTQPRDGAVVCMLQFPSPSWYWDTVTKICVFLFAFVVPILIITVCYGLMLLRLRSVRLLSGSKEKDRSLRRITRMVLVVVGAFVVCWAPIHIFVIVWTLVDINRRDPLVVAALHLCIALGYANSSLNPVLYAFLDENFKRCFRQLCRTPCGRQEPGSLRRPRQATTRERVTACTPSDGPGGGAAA
T3 sequence (P42866 whole entry): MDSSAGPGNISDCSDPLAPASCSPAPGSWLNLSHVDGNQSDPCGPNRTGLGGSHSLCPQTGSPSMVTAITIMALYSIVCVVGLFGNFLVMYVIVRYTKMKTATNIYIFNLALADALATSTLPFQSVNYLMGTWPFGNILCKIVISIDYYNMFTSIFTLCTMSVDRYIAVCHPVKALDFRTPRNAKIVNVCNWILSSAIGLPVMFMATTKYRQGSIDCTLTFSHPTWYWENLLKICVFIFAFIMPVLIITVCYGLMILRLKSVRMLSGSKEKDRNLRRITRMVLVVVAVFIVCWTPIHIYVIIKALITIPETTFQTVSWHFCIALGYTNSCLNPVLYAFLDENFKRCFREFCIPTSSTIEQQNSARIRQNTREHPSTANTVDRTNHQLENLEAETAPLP
T1 sequence (P35372 whole entry): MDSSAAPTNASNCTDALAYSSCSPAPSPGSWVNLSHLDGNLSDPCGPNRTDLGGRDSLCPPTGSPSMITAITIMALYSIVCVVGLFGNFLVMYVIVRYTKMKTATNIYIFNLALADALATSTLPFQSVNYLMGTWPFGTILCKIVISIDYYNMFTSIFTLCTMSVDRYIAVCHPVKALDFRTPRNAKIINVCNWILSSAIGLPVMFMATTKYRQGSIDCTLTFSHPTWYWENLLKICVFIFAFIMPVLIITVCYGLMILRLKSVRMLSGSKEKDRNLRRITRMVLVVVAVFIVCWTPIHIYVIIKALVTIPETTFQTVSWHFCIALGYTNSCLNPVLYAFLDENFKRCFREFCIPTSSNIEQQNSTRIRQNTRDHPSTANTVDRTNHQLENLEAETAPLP

Row | SMILES | Bias Factor µOR (DG = Ref) (µOR [1]) | EC50 (µOR [2]) [nM] | LogR (µOR) β-arr2 (µOR [2]) | β-Arrestin 2 µOR Efficacy (% + SEM) (µOR [2]) [%] | Degradation Products (First Appearance) (Rat plasma stability) | half-life (Rat plasma stability) [min] | IC50 (FLAG-mouse δOR; read-out: cAMP IC50 (nM) δOR) [nM] | IC50 (FLAG-mouse δOR; read-out: cAMP pIC50 ± SEM (δOR) (converted)) [nM] | LogR (δOR) cAMP (FLAG-mouse δOR) | cAMP δOR Efficacy (%+SD) (FLAG-mouse δOR) [%] | LogR (µOR) cAMP (HA-mouse µOR) | cAMP µOR Efficacy (%+SD) (HA-mouse µOR) [%] | IC50 (HA-mouse µOR; read-out: cAMP IC50 (nM) µOR) [nM] | Ki (µOR [3]) [nM] | IC50 (HA-mouse µOR; read-out: cAMP pIC50 ± SEM (µOR) (converted)) [nM] | Bias Factor µOR (DG = Ref) (µOR [1]; listed as 1f (OMe))
1 | CC(C)C[C@H](NC(=O)[C@H](Cc1cccc(F)c1)NC(=O)CNC(=O)CNC(=O)[C@@H](N)Cc1ccc(O)cc1)C(=O)O [Compound 1a, H2N-Tyr-Gly-Gly-(meta-F)Phe-Leu-OH] | 22.2 | 575 | 5.8 | 75 ± 13 | Gly-Gly-(meta-F)Phe-Leu (5 min) (meta-F)Phe-Leu (60 min) | 82.3 | 0.39 | 0.339 | 9.4 | 95 ± 6 | 8.0 | 98 ± 6 | – | – | – | –
2 | CC(C)C[C@H](NC(=O)[C@H](Cc1cccc(Cl)c1)NC(=O)CNC(=O)CNC(=O)[C@@H](N)Cc1ccc(O)cc1)C(=O)O [Compound 1b, H2N-Tyr-Gly-Gly-(meta-Cl)Phe-Leu-OH] | 0.3 | 67.6 | 7.2 | 96 ± 8 | Gly-Gly-(meta-Cl)Phe-Leu (5 min) (meta-Cl)Phe-Leu (30 min) | 37.8 | 0.022 | – | 10.6 | 94 ± 5 | 7.5 | 99 ± 7 | 30.2 | – | – | –
3 | CC(C)C[C@H](NC(=O)[C@H](Cc1cccc(Br)c1)NC(=O)CNC(=O)CNC(=O)[C@@H](N)Cc1ccc(O)cc1)C(=O)O [Compound 1c, H2N-Tyr-Gly-Gly-(meta-Br)Phe-Leu-OH] | 1.2 | 35.5 | 7.2 | 79 ± 6 | Gly-Gly-(meta-Br)Phe-Leu (5 min) (meta-Br)Phe-Leu (15 min) | 21.5 | 0.03 | – | 10.5 | 96 ± 4 | 8.1 | 104 ± 11 | – | 0.13 | 10 | –
4 | CC(C)C[C@H](NC(=O)[C@H](Cc1cccc(I)c1)NC(=O)CNC(=O)CNC(=O)[C@@H](N)Cc1ccc(O)cc1)C(=O)O [Compound 1d] | 3.2 | 46.8 | 6.6 | 70 ± 3 | Gly-Gly-(meta-I)Phe-Leu (5 min) (meta-I)Phe-Leu (15 min) | 13.2 | 0.025 | – | – | 97 ± 4 | 8.0 | 94 ± 11 | 4.27 | 0.14 | – | –
5 | Cc1cccc(C[C@H](NC(=O)CNC(=O)CNC(=O)[C@@H](N)Cc2ccc(O)cc2)C(=O)N[C@@H](CC(C)C)C(=O)O)c1 [Compound 1e] | 11.5 | 186 | 6.1 | 71 ± 3 | Gly-Gly-(meta-Me)Phe-Leu (5 min) (meta-Me)Phe-Leu (20 min) | 39.5 | 0.039 | – | 10 | 92 ± 8 | 8.1 | 85 ± 10 | 3.72 | 0.14 | – | –
6 | COc1cccc(C[C@H](NC(=O)CNC(=O)CNC(=O)[C@@H](N)Cc2ccc(O)cc2)C(=O)N[C@@H](CC(C)C)C(=O)O)c1 [Compound 1f] | – | 589 | 5.6 | 67 ± 3 | Gly-Gly-(meta-OMe)Phe-Leu (5 min) (meta-OMe)Phe-Leu (20 min) | 46.1 | 0.14 | – | 9.8 | 98 ± 10 | 7.4 | 87 ± 5 | 8.12 | – | – | 8.4
